Counter-ions that a name gives are not always drawn. Like-named read-outs stand apart in the source and are kept apart here.
Assays:
[1] = system: mouse bone-marrow derived macrophages; assay: CSF-1-driven mouse bone-marrow derived macrophages assay (BrDU incorporation); type: cell-based; conditions: CSF-1-driven proliferation, 30 hrs culture
Procedure: Macrophages were derived by culturing mouse bone marrow in alpha-MEM supplemented with 10% FCS and 50 ng/ml recombinant mouse CSF-1 in bacteriologic dishes. On the sixth day, macrophages were detached from dishes, washed, and resuspended to 0.05 million cells/ml in alpha-MEM containing 10% FCS. One hundred ul of cell suspension were distributed per well into 96 well culture plates. Wells were further supplemented with the addition of 50 ul media containing 15 ng/ml CSF-1, 3 uM Indomethacin, and 3× of a dilution series of test compounds. The cells were cultured for 30 hrs at 37 degrees and 5% CO2. During the final six hours, cultures were supplemented with an additional 30 ul of media containing a 1:500 dilution of bromodeoxyuridine (BrDU). At the end of the culture period, the plates were spun at 1000 RPM for 1 minute and 130 ul of media was removed with a pipet and replaced with 150 ul of fixative solution for 1 hour@room temperature. The fixative was then dispelled from the plates and the plates allowed to air dry. Incorporation of BrDU into the fixed, dried cells was quantified using a specific ELISA.

c-fms = c-fms (Homo sapiens (Human), UniProt P07333); assay: Autophosphorylation fluorescence polarization competition immunoassay for c-fms inhibition; type: biochemical; conditions: 10 nM c-fms, 1 mM ATP; average of three independent measurements
c-fms, sequence (P07333 20-972): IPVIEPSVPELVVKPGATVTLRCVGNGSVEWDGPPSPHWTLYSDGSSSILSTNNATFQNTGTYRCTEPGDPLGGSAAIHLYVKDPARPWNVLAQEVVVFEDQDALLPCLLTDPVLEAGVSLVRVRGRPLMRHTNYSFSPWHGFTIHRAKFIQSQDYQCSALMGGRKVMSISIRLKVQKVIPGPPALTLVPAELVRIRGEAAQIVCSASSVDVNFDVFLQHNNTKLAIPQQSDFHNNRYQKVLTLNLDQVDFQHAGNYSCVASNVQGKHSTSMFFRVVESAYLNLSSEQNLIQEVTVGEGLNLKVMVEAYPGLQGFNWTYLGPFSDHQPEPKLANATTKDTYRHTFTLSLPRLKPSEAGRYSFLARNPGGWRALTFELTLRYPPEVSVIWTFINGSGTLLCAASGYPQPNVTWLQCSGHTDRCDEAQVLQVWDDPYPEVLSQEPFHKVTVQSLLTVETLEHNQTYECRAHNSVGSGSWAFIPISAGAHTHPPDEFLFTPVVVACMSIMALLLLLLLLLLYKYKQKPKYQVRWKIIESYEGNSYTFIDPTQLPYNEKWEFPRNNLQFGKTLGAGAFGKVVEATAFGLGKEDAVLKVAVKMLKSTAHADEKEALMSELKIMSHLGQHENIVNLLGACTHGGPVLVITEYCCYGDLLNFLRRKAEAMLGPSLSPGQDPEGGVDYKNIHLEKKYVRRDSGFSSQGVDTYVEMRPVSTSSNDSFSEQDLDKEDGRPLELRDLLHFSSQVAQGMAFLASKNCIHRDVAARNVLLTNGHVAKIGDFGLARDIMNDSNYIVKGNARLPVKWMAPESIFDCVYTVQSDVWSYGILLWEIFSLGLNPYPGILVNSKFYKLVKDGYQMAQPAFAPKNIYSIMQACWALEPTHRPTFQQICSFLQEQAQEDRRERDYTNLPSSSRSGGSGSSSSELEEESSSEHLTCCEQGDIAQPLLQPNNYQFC
Procedure: The assay buffer used was 100 mM 4-(2-hydroxyethyl)piperazine1-ethanesulfonic acid (HEPES), pH 7.5, 1 mM 1,4-dithio-DL-threitol (DTT), 0.01% (v/v) Tween-20. Compounds were diluted in assay buffer containing 4% dimethylsulfoxide (DMSO) just prior to the assay. […] The kinase reaction was initiated by adding 2 μL of 5 mM ATP (Sigma) in assay buffer. The final concentrations in the assay were 10 nM c-fms, 1 mM ATP, 5 mM MgCl2, 2% DMSO. Control reactions were ran in each plate: in positive and negative control wells, assay buffer (made 4% in DMSO) was substituted for the compound; in addition, positive control wells received 1.2 μL of 50 mM ethylenediaminetetraaceticacid (EDTA). The plates were incubated at room temperature for 45 min. At the end of the incubation, the reaction was quenched with 1.2 μL of 50 mM EDTA (EDTA was not added to the positive control wells at this point; see above). Following a 5-min incubation, each well received 10 μL of a 1:1:3 mixture of anti-phosphotyrosine antibody, 10×, PTK green tracer, 10× (vortexed), FP dilution buffer, respectively (all from PanVera, cat. # P2837). The plate was covered, incubated for 30 min at room temperature and the fluorescence polarization was read on the Analyst. The instrument settings were: 485 nm excitation filter; 530 nm emission filter; Z height: middle of well; G factor: 0.93. […] The reported IC50 values are averages of three independent measurements.

Row | IC50 (c-fms) [nM] | SMILES | IC50 ([1]; Mus musculus, BMDM) [nM] | IC50 ([1]; read-out: BMDM IC50) [nM]
1 | 0.41 | CC1(C)CC=C(c2nc(C3C[C@](C)(CO)O[C@](C)(CO)C3)ccc2NC(=O)c2nc(C#N)c[nH]2)CC1 (stereo partly drawn) [Example 20, 4-Cyano-1H-imidazole-2-carboxylic acid[(4-cis)-(2-cis,6-cis-bis-hydroxymethyl-2,6-dimethyl-tetrahydro-pyran-4-yl)-2-(4,4dimethyl-cyclohex-1-enyl)-pyridin-3-yl]-amide trifluoroacetic acid salt and 4-Cyano-1H-imidazole-2-carboxylic acid[(4-trans)-(2-cis,6-cis-bis-hydroxymethyl-2,6-dimethyl-tetrahydro-pyran-4-yl)-2-(4,4-dimethyl-cyclohex-1-enyl)-pyridin-3-yl]-amide trifluoroacetic acid salt] | 6.5 | 
2 | 2.9 | C[C@]12CC(c3ccc(NC(=O)c4nc(C#N)c[nH]4)c(C4=CCCCC4)n3)C[C@](C)(O1)[C@H](O)[C@@H]2O (stereo partly drawn) [Example 19, 4-Cyano-1H-imidazole-2-carboxylic acid[2-cyclohex-1-enyl-6-[(3-exo)-(6-exo,7-exo-dihydroxy-1,5-dimethyl-8-oxa-bicyclo[3.2.1]oct-3-yl]-pyridin-3-yl]-amidetrifluoroacetic acid salt and 4-Cyano-1H-imidazole-2-carboxylic acid[2-cyclohex-1-enyl-6-[(3-endo)-(6-exo,7-exo-dihydroxy-1,5-dimethyl-8-oxa-bicyclo[3.2.1]oct-3-yl]-pyridin-3-yl]-amidetrifluoroacetic acid salt] | 27 | 
3 | 16 | C[C@@H]1C2C=C[C@@H](O2)[C@H](C)[C@@]1(O)c1ccc(NC(=O)c2nc(C#N)c[nH]2)c(C2=CCC(C)(C)CC2)c1 [Example 28] | 69 | 
4 | 1.1 | CC1(C)CC=C(c2cc([C@@]3(O)C[C@]4(C)C=C[C@](C)(C3)O4)ccc2NC(=O)c2nc(C#N)c[nH]2)CC1 [Example 9, 4-Cyano-1H-imidazole-2-carboxylic acid[2-(4,4-dimethyl-cyclohex-1-enyl)-4-((3-exo)-3-hydroxy-1,5-dimethyl-8-oxa-bicyclo[3.2.1]oct-6-en-3-yl)-phenyl]-amide] | 4.8 | 
5 | 2 | CC1(C)CC=C(c2cc(C3CC(C)(C)S(=O)(=O)C(C)(C)C3)ccc2NC(=O)c2nc(C#N)c[nH]2)CC1 [Example 22, 4-Cyano-1H-imidazole-2-carboxylic acid[2-(4,4-dimethyl-cyclohex-1-enyl)-4-(2,2,6,6-tetramethyl-1,1-dioxo-hexahydro-1λ^6-thiopyran-4-yl)-phenyl]-amide] | 3.6 | 
6 | 8.9 | CC1(C)CC=C(c2nc(C3CC(C)(C)S(=O)(=O)C(C)(C)C3)ccc2NC(=O)c2nc(C#N)c[nH]2)CC1 [Example 21, 4-Cyano-1H-imidazole-2-carboxylic acid[2-(4,4-dimethyl-cyclohex-1-enyl)-6-(2,2,6,6-tetramethyl-1,1-dioxo-hexahydro-1λ^6-thiopyran-4-yl)-pyridin-3-yl]-amide] | 18 | 
7 | 4.6 | CC1(C)CC=C(c2nc([C@H]3C[C@@]4(C)O[C@@](C)(C3)[C@@H]3OC(C)(C)O[C@@H]34)ccc2NC(=O)c2nc(C#N)c[nH]2)CC1 [Example 17, 4-Cyano-1H-imidazole-2-carboxylic acid[6-[(3-exo)-6-exo,7-exo-(isopropylidinedioxy)-1,5-dimethyl-8-oxa-bicyclo[3.2.1]oct-3-yl]-2-(4,4-dimethyl-cyclohex-1-enyl)-pyridin-3-yl]-amide] | 37 | 
8 | 0.81 | CC1(C)CC=C(c2cc([C@@H]3C[C@@]4(C)O[C@@](C)(C3)[C@H](O)[C@@H]4O)ccc2NC(=O)c2nc(C#N)c[nH]2)CC1 [Example 13, 4-Cyano-1H-imidazole-2-carboxylic acid[4-(3-endo)-(6-exo,7-exo-dihydroxy-1,5-dimethyl-8-oxa-bicyclo[3.2.1]oct-3-yl)-2-(4,4-dimethyl-cyclohex-1-enyl)-phenyl]-amide] | 2.9 | 
9 | 0.66 | CC1(C)CC=C(c2cc([C@@]3(O)C[C@@]4(C)O[C@@](C)(C3)[C@H](O)[C@@H]4O)ccc2NC(=O)c2nc(C#N)c[nH]2)CC1 [Example 12] | 36 | 

More lines, now with the values behind:

Row | SMILES | IC50 (c-fms) [nM] | IC50 ([1]; Mus musculus, BMDM) [nM] | IC50 ([1]; read-out: BMDM IC50) [nM]
10 | CC1(C)CC=C(c2cc(C3C[C@](C)(CO)O[C@](C)(CO)C3)ccc2NC(=O)c2ncc(C#N)[nH]2)CC1 (stereo partly drawn) [Example 14, 4-Cyano-1H-imidazole-2-carboxylic acid[4-cis-(2-cis,6-cis-bis-hydroxymethyl-2,6-dimethyl-tetrahydro-pyran-4-yl)-2-(4,4-dimethyl-cyclohex-1-enyl)-phenyl]-amide (A) and 4-Cyano-1H-imidazole-2-carboxylic acid[4-trans-(2-cis,6-cis-bis-hydroxymethyl-2,6-dimethyl-tetrahydro-pyran-4-yl)-2-(4,4dimethyl-cyclohex-1-enyl)-phenyl]-amide (B)] | 1.1 |  | 4.7
11 | CC1(C)CC=C(c2cc(C3=C[C@@]4(CO)C=C[C@@](CO)(C3)O4)ccc2NC(=O)c2nc(C#N)c[nH]2)CC1 [Example 3, 4-Cyano-1H-imidazole-2-carboxylic acid[4-(1,5-bis-hydroxymethyl-8-oxa-bicyclo[3.2.1]octa-2,6-dien-3-yl)-2-(4,4-dimethyl-cyclohex-1-enyl)-phenyl]-amide] | 0.65 | 9.3 | 
12 | COC[C@@]12CC[C@@](COC)(C[C@H](c3ccc(NC(=O)c4nc(C#N)c[nH]4)c(C4=CCC(C)(C)CC4)c3)C1)O2 [Example 7, 4-Cyano-1H-imidazole-2-carboxylic acid[4-((3-exo)-1,5-bis-methoxymethyl-8-oxa-bicyclo[3.2.1]oct-3-yl)-2-(4,4-dimethyl-cyclohex-1-enyl)-phenyl]-amide] | 2 | 3.3 | 
13 | CC1(C)CC=C(c2cc([C@@]3(O)C[C@]4(CO)CC[C@](CO)(C3)O4)ccc2NC(=O)c2nc(C#N)c[nH]2)CC1 [Example 8, 4-Cyano-1H-imidazole-2-carboxylic acid[2-(4,4-dimethyl-cyclohex-1-enyl)-4-[(3-exo)-3-hydroxy-1,5-bis-hydroxymethyl-8-oxa-bicyclo[3.2.1]oct-3-yl]-phenyl]-amide] | 0.42 | 41 | 
14 | COC(=O)N1[C@@]2(C)C=C[C@]1(C)C[C@@](O)(c1ccc(NC(=O)c3nc(C#N)c[nH]3)c(C3=CCC(C)(C)CC3)c1)C2 [Example 10, 3-(3-exo)-[4-[(4-Cyano-1H-imidazole-2-carbonyl)-amino]-3-(4,4dimethyl-cyclohex-1-enyl)-phenyl]-(3-exo)-3-hydroxy-1,5-dimethyl-8-aza-bicyclo[3.2.1]oct-6-ene-8-carboxylic acid methyl ester] | 3.5 | 40 | 
15 | CC1(C)CC=C(c2cc([C@H]3C[C@]4(CO)CC[C@](CO)(C3)O4)ccc2NC(=O)c2nc(C#N)c[nH]2)CC1 [Example 4, 4-Cyano-1H-imidazole-2-carboxylic acid[4-[(3-exo)-1,5-bis-hydroxymethyl-8-oxa-bicyclo[3.2.1]oct-3-yl]-2-(4,4-dimethyl-cyclohex-1-enyl)-phenyl]-amide] | 0.72 | 6.6 | 
16 | COC[C@@]12CC[C@@](COC)(C[C@@H](c3ccc(NC(=O)c4nc(C#N)c[nH]4)c(C4=CCC(C)(C)CC4)c3)C1)O2 [Example 6, 4-Cyano-1H-imidazole-2-carboxylic acid[4-[(3-endo)-1,5-bis-methoxymethyl-8-oxa-bicyclo[3.2.1]oct-3-yl]-2-(4,4-dimethyl-cyclohex-1-enyl)-phenyl]-amide] | 2.7 | 5 | 
17 | CC1(C)CC=C(c2cc([C@@H]3C[C@]4(CO)CC[C@](CO)(C3)O4)ccc2NC(=O)c2nc(C#N)c[nH]2)CC1 [Example 5, 4-Cyano-1H-imidazole-2-carboxylic acid[4-[(3-endo)-1,5-bis-hydroxymethyl-8-oxa-bicyclo[3.2.1]oct-3-yl]-2-(4,4-dimethyl-cyclohex-1-enyl)-phenyl]-amide] | 0.47 | 4.7 | 
18 | COC[C@@]12C=C[C@@](COC)(C[C@](O)(c3ccc(NC(=O)c4nc(C#N)c[nH]4)c(C4=CCC(C)(C)CC4)c3)C1)O2 [Example 1, 4-Cyano-1H-imidazole-2-carboxylic acid[2-(4,4-dimethyl-cyclohex-1-enyl)-4-[(3-exo)-3-hydroxy-1,5-bis-methoxymethyl-8-oxa-bicyclo[3.2.1]oct-6-en-3-yl]-phenyl]-amide] | 0.86 | 3.2 | 

— patent US8497376B2, “Inhibitors of c-fms kinase” (Janssen Pharmaceutica N.V., priority 2007, dated 2013)
